Entries after “also recorded” stand apart in the source; their conditions may differ.

In assay [1] the test system is hypocotyl explants of tomato cultivar Ailsa Craig. In words: Shoot regeneration of tomato hypocotyl explants on shoot inducing medium (SIM). It counts as cell-based. The procedure:
FIG. 8—Hypocotyl explants of wild-type (WT) Ailsa Craig and prr mutants cultured in the presence or absence of SIPEP (REF1) at 1 nM in a shoot inducing medium for 21 days.
Relative regeneration frequency was determined by counting the number of regenerated shoots and calculating the average for each group, the average of each group was then divided by the average of the control group.
The number of hypocotyls means explants with varying numbers of regenerated shoots.
To test whether SIPEP (REF1) could rescue shoot regeneration defects in prr mutants were cultured in shoot inducing medium (SIM) in the presence and absence of 1 nM REF1. Shoot regeneration was then scored after 21 days.
Relative regeneration frequency was determined by counting the number of regenerated shoots and calculating the average for each group, the average of each group was then divided by the average of the WT-Mock group.
‘The number of hypocotyls’ means explants with different number of regenerated shoots (0, 1, 2, 3 and ≥4) in each of the genotypes (WT, prr-1, prr-2).
Shoot regeneration was also measured in RER knock out mutants (rer-1 and rer-3) compared to wild type (WT) tomato plants (Ailsa Craig) in the presence and absence of SIPEP (REF1).

For a further assay, the system named is SIWIND1 promoter. In words: SIWIND1 promoter activity (pSIWIND1::GUS) in cut hypocotyls. It counts as cell-based, tomato. To be noted: cut hypocotyls on MS medium with or without 1 nM REF1. The procedure: (a) Induction of the SIWIND1 promoter activity at the wound sites of hypocotyl explants. Hypocotyl explants of 7-d-old pSIWIND1::GUS plants were cultured on MS medium with or without 1 nM REF1. Representative images of hypocotyls at indicated time after wounding are shown. Bars, 1 mm. […] Hypocotyls of 7-d-old seedlings of the indicated genotypes were cut and hypocotyl explants were cultured on MS medium for 9 h before gene expression analysis. Hypocotyls of undamaged seedlings were harvested as control. Data are mean±SD, n=3 biological repeats. (c and d) REF1-induced callus formation in WT and sIwind1 mutants. Hypocotyl explants were cultured on CIM with or without 1 nM REF1 for 14 d before callus phenotype was scored. Shown are representative callus images (c) and quantification of the callus projection area (d). […] Hypocotyl explants were cultured on CIM for 14 d and then transferred to SIM with or without 1 nM REF1 for 21 d before shoot organogenesis phenotype was scored. […] Hypocotyl explants were cultured on CIM for 14 d before callus phenotype was scored. Shown are representative callus images (g) and quantification of the callus projection area (h). […] Hypocotyl explants were cultured on CIM for 14 d and then transferred to SIM for 21 d before shoot organogenesis phenotype was scored. […] In (h) and (j), statistical significance was determined by a student's t test (***p<0.001, **p<0.01, *p<0.05). […]

The next assay relates to RER. The assay is described as follows: Autophosphorylation assay of RER in tobacco leaves. It counts as cell-based, tomato. To be noted: 100 nM, 20 min.
Chain of RER (as listed by the source): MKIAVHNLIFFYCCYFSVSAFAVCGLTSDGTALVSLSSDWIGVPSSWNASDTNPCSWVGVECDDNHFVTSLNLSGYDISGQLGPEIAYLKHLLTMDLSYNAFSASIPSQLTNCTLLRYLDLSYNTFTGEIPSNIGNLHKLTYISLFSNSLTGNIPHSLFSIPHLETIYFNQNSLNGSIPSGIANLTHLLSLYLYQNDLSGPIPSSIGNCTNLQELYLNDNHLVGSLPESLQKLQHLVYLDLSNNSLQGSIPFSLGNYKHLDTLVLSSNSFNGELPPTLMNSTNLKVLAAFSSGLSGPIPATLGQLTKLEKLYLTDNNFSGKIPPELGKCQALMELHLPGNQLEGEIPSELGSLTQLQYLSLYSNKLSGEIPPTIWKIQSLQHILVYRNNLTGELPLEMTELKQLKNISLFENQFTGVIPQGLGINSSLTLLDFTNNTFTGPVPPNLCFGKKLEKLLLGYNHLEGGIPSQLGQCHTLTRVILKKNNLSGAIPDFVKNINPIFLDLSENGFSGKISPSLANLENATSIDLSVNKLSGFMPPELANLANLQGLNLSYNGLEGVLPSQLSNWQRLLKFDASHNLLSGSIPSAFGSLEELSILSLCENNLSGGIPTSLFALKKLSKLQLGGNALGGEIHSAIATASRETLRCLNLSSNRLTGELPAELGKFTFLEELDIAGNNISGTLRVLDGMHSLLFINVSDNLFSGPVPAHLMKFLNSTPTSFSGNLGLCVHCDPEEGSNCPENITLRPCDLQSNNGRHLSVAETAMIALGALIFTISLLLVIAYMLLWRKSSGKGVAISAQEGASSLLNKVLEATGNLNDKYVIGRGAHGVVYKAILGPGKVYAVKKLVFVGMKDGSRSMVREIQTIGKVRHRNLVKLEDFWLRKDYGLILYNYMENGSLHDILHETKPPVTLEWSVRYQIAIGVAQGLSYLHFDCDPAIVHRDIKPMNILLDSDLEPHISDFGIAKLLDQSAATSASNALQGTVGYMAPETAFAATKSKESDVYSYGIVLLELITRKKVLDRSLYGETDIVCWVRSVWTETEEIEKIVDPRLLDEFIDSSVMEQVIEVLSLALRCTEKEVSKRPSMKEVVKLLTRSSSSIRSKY
The next assay concerns ectodomains of RER. The assay is described as follows: Pull-down assay with HA-Flag-tagged RER ectodomains and biotinylated peptides. The note with it: biotinylated peptide. It counts as binding, tomato.
Chain of ectodomains of RER (as listed by the source): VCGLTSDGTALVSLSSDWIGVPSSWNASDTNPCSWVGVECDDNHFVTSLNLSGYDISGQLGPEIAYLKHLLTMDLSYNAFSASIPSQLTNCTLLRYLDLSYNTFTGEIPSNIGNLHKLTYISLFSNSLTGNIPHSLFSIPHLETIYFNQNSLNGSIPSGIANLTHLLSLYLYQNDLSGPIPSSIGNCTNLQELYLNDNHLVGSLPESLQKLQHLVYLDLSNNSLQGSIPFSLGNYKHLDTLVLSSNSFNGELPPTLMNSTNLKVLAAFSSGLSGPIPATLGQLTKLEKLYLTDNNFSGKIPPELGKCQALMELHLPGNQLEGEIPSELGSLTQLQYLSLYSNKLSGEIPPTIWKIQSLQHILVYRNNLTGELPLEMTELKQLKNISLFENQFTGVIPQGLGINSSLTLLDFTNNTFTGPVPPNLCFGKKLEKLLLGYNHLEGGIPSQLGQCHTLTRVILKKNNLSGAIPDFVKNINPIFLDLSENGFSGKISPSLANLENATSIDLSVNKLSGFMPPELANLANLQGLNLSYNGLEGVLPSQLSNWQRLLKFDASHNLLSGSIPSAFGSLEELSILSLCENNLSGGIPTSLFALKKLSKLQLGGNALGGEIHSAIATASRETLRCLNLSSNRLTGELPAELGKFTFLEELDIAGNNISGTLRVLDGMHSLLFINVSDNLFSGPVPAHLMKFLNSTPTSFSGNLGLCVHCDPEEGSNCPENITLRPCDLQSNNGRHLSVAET
[2] abbreviates: WT, prr-1 and prr-2, SIM with 1 nM REF1, 21 days.

On to “ATDRRGRPPSRPKVGSGPPPQNN (listed as Solanum lycopersicum) [REF1, 23 amino acid tomato peptide cleaved from precursor PROSIPEP]”, for which the shoot regeneration result in assay [1] (WT Ailsa Craig, SIM with 1 nM REF1 vs without, 21 days) is given as “increased; also recorded: highest”. Further, in assay [1] (setting [2]), the number of hypocotyl result was “increased” and the relative regeneration frequency result is reported as “increased”. The shoot regeneration result in assay [1] (prr-1 and prr-2 mutants, SIM with 1 nM REF1, 21 days) was “rescued”. The “REF1 induced shoot regeneration (shoot regeneration frequency, number of hypocotyl)” value in assay [1] (rer-1 and rer-3 knockouts, presence vs absence of REF1) is given as “did not lead to any increase; also recorded: defective”. The “SIWIND1 promoter activity / expression” value in the assay with SIWIND1 promoter was “enhanced; also recorded: promoting SIWIND1 expression”. Further, in the assay with RER, the “auto-phosphorylation of RER” value was “triggers auto-phosphorylation”. In addition, in the assay on ectodomains of RER, the “binding to RER ectodomain (pull-down)” value is “binds”.

The values above are taken from US20260265771A1, “METHODS OF INCREASING THE REGENERATION EFFICIENCY IN PLANTS” (Institute of Genetics and Developmental Biology Chinese …, priority 2022, published 2026).
